Data from patent US20180161262A1, “Cosmetic Method and Dermatological Topical Agent for Use Therein, Migration Imparting Agent, and Method for Screening Components for Use in Cosmetic Method for Improving Skin State” (ROHTO PHARMACEUTICAL CO., LTD., priority 2015, published 2018).

Assays:
[1] = test system: human adipose-derived stem cells; assay: Confirmation test for growth promoting effect (WST-8 method, Cell Counting Kit-8); type: cell-based; conditions: 72 hours; for Growth promoting effect, Ratio to blank (%): blank = 100%
Protocol: A medium in which a sample to be examined for the presence or absence of the migration imparting effect was dissolved at a predetermined concentration was prepared by using DMEM/F12 medium (manufactured by Life Technologies Corp.) containing 0.1% by volume of fetal bovine serum. Also, DMEM/F12 medium containing 0.1% by volume of fetal bovine serum unsupplemented with the sample (blank) was provided.
Then, human adipose-derived stem cells (manufactured by Kurabo Industries Ltd.; cultured to the 5th passage in STEMLIFE medium [provided by Lifeline Cell Technology]) were inoculated at 3000 cells per well with the prepared medium to a 96-well plate and cultured at 37° C. for 72 hours under 5% by volume of CO2, and then, respiratory activity of the cells was measured as an index for whether or not the cells were activated, by the WST-8 method using Cell Counting Kit-8 (manufactured by Dojindo Laboratories). Specifically, after the human adipose-derived stem cells were cultured for 72 hours, the medium of each well was replaced with DMEM/F12 medium containing Cell Counting Kit-8, which was then incubated at 37° C. for 4 hours under 5% by volume of CO2 in the dark, and then, absorbance at a wavelength of 450 nm (control wavelength: 630 nm) was measured. Each test was conducted in triplicate (n=3).
Specifically, the degree of the respiratory activity (proportional to the number of cells) was measured as the absorbance (wavelength: 450 nm) of the solution by using the WST-8 reagent. Then, the presence or absence of the growth promoting effect was confirmed by determining increase or decrease in the absorbance of the sample-containing prepared medium by using the absorbance obtained by the assay of the blank medium as a reference (100%). As for the determination of the presence or absence of growth promotion, the “stem cell growth promoting effect was present” was determined provided that the rate of stem cell growth (rate of growth with respect to the blank) was 5% or more (score + or more) according to the score shown in Table 2 below.
(§1) It is known that the doubling time of the present cells is usually 24 hours or longer, and in the confirmation test for the migration imparting effect, the human adipose-derived stem cells are taken out 20 hours after inoculation and washed, followed by the measurement of the strength of fluorescence emission. Accordingly, in this test, the growth effect of the human adipose-derived stem cells themselves is not included, and only increase in cells by migration is evaluated. On the other hand, in the confirmation test for the growth promoting effect, absorbance 72 hours after inoculation of the human adipose-derived stein cells is measured, and increase in cells by self-growth is simply evaluated.

[2] = test system: human adipose-derived stem cells; assay: Confirmation test for migration imparting effect (96-well Boyden chamber, Calcein-AM fluorescence); type: cell-based; conditions: 20 hours; for Migration imparting effect, Ratio to blank (%): blank = 100%
Protocol: A medium of human adipose-derived stem cells (manufactured by Kurabo Industries Ltd.; cultured to the 7th passage in STEMLIFE medium [provided by Lifeline Cell Technology]) was replaced with DMEM/F12 medium (manufactured by Life Technologies Corp.), followed by culture for additional 20 hours.
Meanwhile, a medium in which a sample to be examined for the presence or absence of the migration imparting effect was dissolved at a predetermined concentration was prepared by using 0.1% by volume of fetal bovine serum (nutritional source). Also, DMEM/F12 medium containing 0.1% by volume of fetal bovine serum and not containing the sample (blank) was provided.
Then, the prepared medium was supplied at 200 μL per well to lower wells of a 96-well Boyden chamber (manufactured by Corning Inc., model number: 3384) having a membrane pore size of 8 μm. Also, the human adipose-derived stem cells cultured for 20 hours in the DMEM/F12 medium were inoculated at 30000 cells per well to upper wells of the Boyden chamber and cultured at 37° C. for 20 hours under 5% by volume of CO2.
1.2 μL/mL of Calcein-AM (fluorescent dye, manufactured by Molecular Probes/Thermo Fisher Scientific Inc.) dissolved at 1.66 mg/mL in DMSO (manufactured by Wako Pure Chemical Industries, Ltd.) was added to 10× cell dissociation solution (cell dissolution solution, manufactured by Trevigen Inc.) diluted 10-fold with sterilized water to thereby prepare an index solution for fluorescence emission having the correlation between the number of human adipose-derived stem cells and the strength of fluorescence emission.
The media in the upper and lower wells were taken out of the Boyden chamber and washed with PBS(−) (manufactured by Dojindo Laboratories), and then, the index solution for fluorescence emission was supplied at 100 μL per well to the lower wells and incubated at 37° C. for 1 hour under 5% by volume of CO2 in the dark. Then, the index solution in the lower wells after the incubation was transferred to a 96-well plate (manufactured by Greiner Bio One International GmbH) having black walls and a transparent bottom, and fluorescence intensity (excitation wavelength: 485 nm, detection wavelength: 520 nm) was measured. Each test was conducted in triplicate (n=3).
Specifically, since there is a correlation between the number of human adipose-derived stem cells and the strength of fluorescence emission as mentioned above, the presence or absence of the migration imparting effect was confirmed by determining increase or decrease in the fluorescence intensity of the lower wells by using the fluorescence intensity obtained by the assay of the blank as a reference (100%). As for the determination of the presence or absence of migration, the “migration imparting effect was present” was determined provided that the rate of stem cell migration (rate of increase with respect to the blank) was 5% or more (score + or more) according to the score shown in Table 1 below.
as §1

[3] = applied concentration 0.01 mg/mL
[4] = applied concentration 0.1 mg/mL
[5] = applied concentration 1.0 mg/mL
[6] = applied concentration 0.001 mg/mL

## caprooyl tetrapeptide-3
[1]; [3]
  Growth promoting effect, Evaluation (score): ++ (120 or more and less than 130)
  Growth promoting effect, Ratio to blank (%): 120%
[1]; [4]
  Growth promoting effect, Evaluation (score): ++ (120 or more and less than 130)
  Growth promoting effect, Ratio to blank (%): 123%
[1]; [5]
  Growth promoting effect, Evaluation (score): + (105 or more and less than 120)
  Growth promoting effect, Ratio to blank (%): 117%
[2]; [3]
  Migration imparting effect, Evaluation (score): + (105 or more and less than 120)
  Migration imparting effect, Ratio to blank (%): 109%
[2]; [4]
  Migration imparting effect, Evaluation (score): +++ (130 or more and less than 140)
  Migration imparting effect, Ratio to blank (%): 133%
[2]; [5]
  Migration imparting effect, Evaluation (score): +++ (130 or more and less than 140)
  Migration imparting effect, Ratio to blank (%): 132%

## copper tripeptide-1
[1]; [3]
  Growth promoting effect, Evaluation (score): +++ (130 or more and less than 140)
  Growth promoting effect, Ratio to blank (%): 130%
[1]; [4]
  Growth promoting effect, Evaluation (score): ++++ (140 or more)
  Growth promoting effect, Ratio to blank (%): 160%
[2]; [6]
  Migration imparting effect, Evaluation (score): +++ (130 or more and less than 140)
  Migration imparting effect, Ratio to blank (%): 130%
[2]; [3]
  Migration imparting effect, Evaluation (score): ++ (120 or more and less than 130)
  Migration imparting effect, Ratio to blank (%): 125%
[2]; [4]
  Migration imparting effect, Evaluation (score): +++ (130 or more and less than 140)
  Migration imparting effect, Ratio to blank (%): 131%
